Among the data in patent US20230399341A1, “7-PHENYL SUBSTITUTED 2-AMINOQUINAZOLINE INHIBITORS OF HPK1” (MERCK SHARP & DOHME LLC, priority 2020, published 2023) are IC50 values, retold here.

The target in this experiment is T1, Human HPK1, catalytic domain (Homo sapiens, UniProt Q92918).
T1 sequence (Q92918 1-346): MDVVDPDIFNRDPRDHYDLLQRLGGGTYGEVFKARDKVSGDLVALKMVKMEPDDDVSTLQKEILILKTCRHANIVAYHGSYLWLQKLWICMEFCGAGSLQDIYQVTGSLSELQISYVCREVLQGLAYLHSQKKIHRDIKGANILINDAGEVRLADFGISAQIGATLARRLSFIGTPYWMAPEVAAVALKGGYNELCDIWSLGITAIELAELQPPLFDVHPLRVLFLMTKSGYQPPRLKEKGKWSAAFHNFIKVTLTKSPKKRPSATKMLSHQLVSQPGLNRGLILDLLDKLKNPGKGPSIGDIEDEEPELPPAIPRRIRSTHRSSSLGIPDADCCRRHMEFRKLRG
Put plainly: HPK1-SLP76 TR-FRET Assay. The format is biochemical. The conditions noted are these: 75 pM HPK1, ATP 10 uM, SLP76 10 nM, 30 min pre-incubation, 60 min reaction. A general note: In TR-FRET formats the signal depends on donor and acceptor labels being close together.

Usually IC50 stands for the concentration that inhibits the measured activity by half.

On to `COc1cc(C2CCN(C)C2=O)ccc1Nc1ncc2c(N)c(F)c(-c3cnc4c(c3C)NCCO4)cc2n1` (single isomer, unassigned) [Compound 2-57, (R or S)-3-(4-{[5-amino-6-fluoro-7-(8-methyl-2,3-dihydro-1H-pyrido[2,3-b][1,4]oxazin-7-ylquinazolin-2-yl]amino}-3-methoxyphenyl)-1-methylpyrrolidin-2-one], for which inhibition was half-maximal at 0.905 nM (IC50).
`Cc1c(-c2cc3nc(Nc4ccc5c(c4)CCS5(=O)=O)ncc3c(N)c2F)cnc2c1NCCO2` [Compound 2-43, 5-{[5-amino-6-fluoro-7-(8-methyl-2,3-dihydro-1H-pyrido[2,3-b][1,4]oxazin-7-yl)quinazolin-2-yl]amino}-2,3-dihydro-1H-1-benzothiophene-1,1-dione] came in with a half-inhibitory concentration (IC50) of 0.0849 nM.
To `COc1cc2c(cc1Nc1ncc3ccc(-c4cccc(S(=O)(=O)N5CCCCC5)c4)cc3n1)CNCC2` [Compound 1-82, N-(6-methoxy-1,2,3,4-tetrahydroisoquinolin-7-yl)-7-{3-[(piperidin-1-yl)sulfonyl]phenyl}quinazo-line-2-amine] belongs 15.2 nM; to `COc1cc2c(cc1Nc1ncc3ccc(-c4cccc(C(=O)NC5CC5)c4)cc3n1)CNCC2` [Compound 1-67, N-cyclopropyl-3-{2-[(6-methoxy-1,2,3,4-tetrahydroisoquinolin-7-yl)amino]quinazolin-7-yl}benzamide], 33.9 nM.
The molecule `Cc1c(-c2c(F)c(N)c3cnc(Nc4ccc5c(c4)CN(C)CC54CC4)nc3c2C)cnc2c1NCCO2` [Compound 2-110, (+ or −)-6-fluoro-8-methyl-N2-(2′-methyl-2′,3′-dihydro-1′H-spiro[cyclopropane-1,4′-isoquinolin]-7′-yl)-7-(8-methyl-2,3-dihydro-1H-pyrido[2,3-b][1,4]oxazin-7-yl)quinazoline-2,5-diamine] returned an IC50 of 0.0706 nM.
Consider `Cc1c(-c2c(F)c(N)c3cnc(Nc4cc5c(cc4F)CCN(C)C5)nc3c2Cl)cnc2c1NCCO2` [Compound 2-107, (+ or −)-8-chloro-6-fluoro-N2-(6-fluoro-2-methyl-1,2,3,4-tetrahydroisoquinolin-7-yl)-7-(8-methyl-2,3-dihydro-1H-pyrido[2,3-b][1,4]oxazin-7-yl)quinazoline-2,5-diamine], for which the IC50 worked out at 0.0862 nM.
On to `COc1cc2c(cc1Nc1ncc3c(N)c(F)c(-c4cncc(N)c4C)cc3n1)CN(C)CC2` [Compound 2-1, 7-(5-amino-4-methylpyridin-3-yl)-6-fluoro-N~2~-(6-methoxy-2-methyl-1,2,3,4-tetrahydroisoquinolin-7-yl)quinazoline-2,5-diamine], for which inhibition was half-maximal at 0.249 nM (IC50).
To `Cc1c(-c2cc3nc(Nc4cccnc4)ncc3c(N)c2F)cnc2c1NCCO2` [Compound 2-9, 6-fluoro-7-(8-methyl-2,3-dihydro-1H-pyrido[2,3-b][1,4]oxazin-7-yl)-N~2~- (pyridin-3-yl)quinazoline-2,5-diamine] belongs 0.129 nM; to `CNC(=O)C1CCc2cc(Nc3ncc4cc(F)c(-c5cnc6c(c5C)NCCO6)cc4n3)ccc21` (single isomer, unassigned) [Compound 1-118, (R or S)-5-{[6-fluoro-7-(8-methyl-2,3-dihydro-1H-pyrido[2,3-b][1,4]oxazin-7-yl)quinazolin-2-yl]amino}-N-methyl-2,3-dihydro-1H-indene-1-carboxamide], 0.0363 nM.
For the molecule `COc1cc2c(cc1Nc1ncc3c(N)c(F)c(-c4cnc5c(c4C)NCCO5)c(Cl)c3n1)CN(C(C)C)CC2` [Compound 2-102, (+ or −)-8-chloro-6-fluoro-N~2~-[6-methoxy-2-(propan-2-yl)-1,2,3,4-tetrahydroisoquinolin-7-yl]-7-(8-methyl-2,3-dihydro-1H-pyrido[2,3-b][1,4]oxazin-7-yl)quinazoline-2,5-diamine], the midpoint of inhibition, the IC50, lay at 0.204 nM.
Molecule `CNC(=O)C1CCc2cc(Nc3ncc4cc(F)c(-c5cnc6c(c5C)NCCO6)cc4n3)ccc21` (single isomer, unassigned) [Compound 1-119, (R or S)-5-{[6-fluoro-7-(8-methyl-2,3-dihydro-1H-pyrido[2,3-b][1,4]oxazin-7-yl)quinazolin-2-yl]amino}-N-methyl-2,3-dihydro-1H-indene-1-carboxamide] returned an IC50 of 1.17 nM.
In the case of `Cc1c(-c2c(F)c(N)c3cnc(Nc4ccc(CS(C)(=O)=O)cc4F)nc3c2Cl)cnc2c1NCCO2` (single isomer, unassigned) [Compound 2-131, 8-chloro-6-fluoro-N2-(2-fluoro-4-((methylsulfonyl)methyl)phenyl)-7-(8-methyl-2,3-dihydro-1H-pyrido[2,3-b][1,4]oxazin-7-yl)quinazoline-2,5-diamine], the IC50 was determined as 0.126 nM.
As for `COc1cc2c(cc1Nc1ncc3ccc(-c4cnc(C#N)c(C)c4)cc3n1)CN(C)CC2` [Compound 1-104, 5-{2-[(6-methoxy-2-methyl-1,2,3,4-tetrahydroisoquinolin-7-yl)amino]quinazolin-7-yl}-3-methylpyridine-2-carbonitrile], the figure is 212 nM.
As for `Cc1c(-c2cc3nc(Nc4ccc5c(c4)CN(CC(C)(C)O)C5=O)ncc3c(N)c2F)cnc2c1NCCO2` [Compound 2-42, 5-{[5-amino-6-fluoro-7-(8-methyl-2,3-dihydro-1H-pyrido[2,3-b][1,4]oxazin-7-yl)quinazolin-2-yl]amino}-2-(2-hydroxy-2-methylpropyl)-2,3-dihydro-1H-isoindol-1-one], the figure is 0.153 nM; as for `Cc1c(-c2cc3nc(Nc4ccc5c(c4)CN(C)C5=O)ncc3c(N)c2F)cnc2c1NCCO2` [Compound 2-78, 5-{[5-amino-6-fluoro-7-(8-methyl-2,3-dihydro-1H-pyrido[2,3-b][1,4]oxazin-7-yl)quinazolin-2-yl]amino}-2-methyl-2,3-dihydro-1H-isoindol-1-one], 0.0198 nM; as for `Cc1c(-c2cc3nc(Nc4ccccc4C4CC4)ncc3c(N)c2F)cnc2c1NCCO2` [Compound 2-26, N~2~-(2-cyclopropylphenyl)-6-fluoro-7-(8-methyl-2,3-dihydro-1H-pyrido[2,3-b][1,4]oxazin-7-yl)quinazoline-2,5-diamine], 11.5 nM.
To `Cc1c(-c2cc3nc(Nc4ccc([S+](C)[O-])cc4)ncc3c(N)c2F)cnc2c1NCCO2` (centres unmarked) [Compound 2-170, 6-fluoro-7-(8-methyl-2,3-dihydro-1H-pyrido[2,3-b][1,4]oxazin-7-yl)-N~2~- [4-(methylsulfinyl)phenyl] quinazoline-2,5-diamine] belongs 0.0392 nM.
Regarding `Cc1c(-c2cc3nc(Nc4ccc(C5(C#N)CC5)cc4)ncc3c(N)c2F)cnc2c1NCCO2` [Compound 2-18, 1-(4-{[5-amino-6-fluoro-7-(8-methyl-2,3-dihydro-1H-pyrido[2,3-b][1,4]oxazin-7-yl)quinazolin-2-yl]amino}phenyl)cyclo-propane-1-carbonitrile], 0.382 nM corresponded to half-maximal inhibition (IC50).
In turn, `Cc1c(-c2cc3nc(Nc4ccc5c(c4)CN(C)CC5)ncc3c(N)c2F)cnc2c1NCC(C)(C)O2` [Compound 2-166, 6-fluoro-N~2~-(2-methyl-1,2,3,4-tetrahydroisoquinolin-7-yl)-7-(3,3,8-trimethyl-2,3-dihydro-1H-pyrido[2,3-b][1,4]oxazin-7-yl)quinazoline-2,5-diamine] showed an IC50 of 0.0589 nM.
As for `COc1cc2c(cc1Nc1ncc3ccc(-c4cc(C5(CO)CC5)ccc4OC)cc3n1)CNCC2` [Compound 1-74, [1-(4-methoxy-3-{2-[(6-methoxy-1,2,3,4-tetrahydroisoquinolin-7-yl)amino]quinazolin-7-yl}phenyl)cyclo-propyl]methanol], the figure is 143 nM; as for `Cc1c(-c2cc3nc(Nc4ccc(CC(C)(C)O)cc4)ncc3c(N)c2F)cnc2c1NCCO2` [Compound 2-178, 1-(4-{[5-amino-6-fluoro-7-(8-methyl-2,3-dihydro-1H-pyrido[2,3-b][1,4]oxazin-7-yl)quinazolin-2-yl]amino}phenyl)-2-methylpropan-2-ol], 0.0933 nM.
As for `CCC1COC(=O)N1c1cc(N)c2cnc(Nc3cc4c(cc3OC)CCN(C)C4)nc2c1` (single isomer, unassigned) [Compound 3-16, (S or R)-3-{5-amino-2-[(6-methoxy-2-methyl-1,2,3,4-tetrahydroisoquinolin-7-yl)amino]quinazolin-7-yl}-4-ethyl-1,3-oxazolidin-2-one], the figure is 0.169 nM; as for `COc1cc2c(cc1Nc1ncc3ccc([C@H]4CC[C@H](CN)CC4)cc3n1)CN(C)CC2` [Compound 5-2, 7-((1r,4r)-4-(aminomethyl)-cyclohexyl)-N-(6-methoxy-2-methyl-1,2,3,4-tetrahydroiso-quinolin-7-yl)quinazolin-2-amine], 165 nM; as for `Cc1c(-c2cc3nc(Nc4ccccc4)ncc3c(N)c2F)cnc2c1NCCO2` [Compound 2-25, 6-fluoro-7-(8-methyl-2,3-dihydro-1H-pyrido[2,3-b][1,4]oxazin-7-yl)-N~2~- phenylquinazoline-2,5-diamine], 0.275 nM.
To `COc1cc2c(cc1Nc1ncc3ccc(-c4ccc(NCCN5CCOCC5)nc4)cc3n1)CNCC2` [Compound 1-48, N-(6-methoxy-1,2,3,4-tetrahydroisoquinolin-7-yl)-7-(6-{[2-(morpholin-4-yl)ethyl]amino}pyridin-3-yl)quinazolin-2-amine] belongs 387 nM; to `Cc1c(-c2cc3nc(Nc4ccc5c(c4)C(C)(C)OC5=O)ncc3cc2F)cnc2c1NCCO2` [Compound 1-112, 5-{[6-fluoro-7-(8-methyl-2,3-dihydro-1H-pyrido[2,3-b][1,4]oxazin-7-yl)quinazolin-2-yl]amino}-3,3-dimethyl-2-benzofuran-1(3H)-one], 5.2 nM.
